Assay results published in the NIST ThermoML archive (doi:10.1016/j.fluid.2018.05.028).

Test: xn = mol fraction of the nth substance listed
Details: 101 kPa, Liquid; for viscosity: Concentric cylinders viscometry; for speed of sound: Single path-length method; for mass density: Vibrating tube method

CCCCCCCCCCCCCCCC [hexadecane] + CCCCO
Details | mass density [kg/m3] | speed of sound [m/s] | viscosity [mPa·s]
293.15 K, x2 = 0 | 773.35 | 1357.4 | 3.408
293.15 K, x2 = 0.1 | 773.9 | 1349.6 | 3.204
293.15 K, x2 = 0.2 | 774.92 | 1343.3 | 3.109
293.15 K, x2 = 0.3 | 776.24 | 1336.8 | 2.998
293.15 K, x2 = 0.4 | 777.91 | 1329.7 | 2.935
293.15 K, x2 = 0.5 | 780.07 | 1322 | 2.9
293.15 K, x2 = 0.6 | 782.88 | 1313.4 | 2.854
293.15 K, x2 = 0.7 | 786.53 | 1303.1 | 2.874
293.15 K, x2 = 0.8 | 791.49 | 1290.7 | 2.875
293.15 K, x2 = 0.9 | 798.54 | 1275.4 | 2.856
298.15 K, x2 = 0 | 769.87 | 1338.5 | 3.035
298.15 K, x2 = 0.1 | 770.35 | 1330.6 | 2.852
298.15 K, x2 = 0.2 | 771.34 | 1324.4 | 2.77
298.15 K, x2 = 0.3 | 772.63 | 1317.9 | 2.675
298.15 K, x2 = 0.4 | 774.28 | 1310.8 | 2.616
298.15 K, x2 = 0.5 | 776.41 | 1303.2 | 2.578
298.15 K, x2 = 0.6 | 779.18 | 1294.7 | 2.535
298.15 K, x2 = 0.7 | 782.81 | 1284.7 | 2.543
298.15 K, x2 = 0.8 | 787.73 | 1272.7 | 2.541
298.15 K, x2 = 0.9 | 794.77 | 1257.8 | 2.52
303.15 K, x2 = 0 | 766.4 | 1319.8 | 2.708
303.15 K, x2 = 0.1 | 766.82 | 1311.8 | 2.544
303.15 K, x2 = 0.2 | 767.77 | 1305.6 | 2.471
303.15 K, x2 = 0.3 | 769.03 | 1299.1 | 2.387
303.15 K, x2 = 0.4 | 770.64 | 1292.1 | 2.332
303.15 K, x2 = 0.5 | 772.74 | 1284.6 | 2.294
303.15 K, x2 = 0.6 | 775.47 | 1276.2 | 2.249
303.15 K, x2 = 0.7 | 779.07 | 1266.4 | 2.246
303.15 K, x2 = 0.8 | 783.97 | 1254.7 | 2.244
303.15 K, x2 = 0.9 | 790.97 | 1240.2 | 2.219
308.15 K, x2 = 0 | 762.95 | 1301.3 | 2.432
308.15 K, x2 = 0.1 | 763.28 | 1293.2 | 2.283
308.15 K, x2 = 0.2 | 764.19 | 1287 | 2.217
308.15 K, x2 = 0.3 | 765.42 | 1280.5 | 2.144
308.15 K, x2 = 0.4 | 766.99 | 1273.5 | 2.092
308.15 K, x2 = 0.5 | 769.05 | 1266.1 | 2.053
308.15 K, x2 = 0.6 | 771.75 | 1257.8 | 2.012
308.15 K, x2 = 0.7 | 775.31 | 1248.2 | 2.001
308.15 K, x2 = 0.8 | 780.17 | 1236.8 | 1.992
308.15 K, x2 = 0.9 | 787.14 | 1222.8 | 1.967
313.15 K, x2 = 0 | 759.49 | 1283.1 | 2.199
313.15 K, x2 = 0.1 | 759.74 | 1274.9 | 2.064
313.15 K, x2 = 0.2 | 760.61 | 1268.5 | 2.004
313.15 K, x2 = 0.3 | 761.8 | 1262.1 | 1.939
313.15 K, x2 = 0.4 | 763.33 | 1255.1 | 1.89
313.15 K, x2 = 0.5 | 765.35 | 1247.7 | 1.851
313.15 K, x2 = 0.6 | 768.01 | 1239.6 | 1.811
313.15 K, x2 = 0.7 | 771.52 | 1230.1 | 1.794
313.15 K, x2 = 0.8 | 776.34 | 1219 | 1.781
313.15 K, x2 = 0.9 | 783.27 | 1205.5 | 1.755
318.15 K, x2 = 0 | – | 1265 | 1.996
318.15 K, x2 = 0.1 | – | 1256.7 | 1.871
318.15 K, x2 = 0.2 | – | 1250.3 | 1.815
318.15 K, x2 = 0.3 | – | 1243.8 | 1.756
318.15 K, x2 = 0.4 | – | 1236.9 | 1.709
318.15 K, x2 = 0.5 | – | – | 1.67
318.15 K, x2 = 0.6 | – | – | 1.631
318.15 K, x2 = 0.7 | – | – | 1.613
318.15 K, x2 = 0.8 | – | – | 1.593
318.15 K, x2 = 0.9 | – | – | 1.564
